Active and inactive are the calls of the source. No cut-off for these calls is given here.
Experiments:
[1] = Drug metabolism in HEK293 cells assessed as retention time at 2 uM by LC-MS analysis; assay type: ADME, cell-based; conditions: human, hek293, 2 µM
[2] = Cytotoxicity against HEK-Blue cells over-expressing NOD2 assessed as residual metabolic activity at 20 uM after 18 hrs by CellTiter 96 aqueous one solution cell proliferation assay relative to control; assay type: ADME, cell-based; conditions: human, read-out: Activity
[3] = molecular target: T1, Nucleotide-binding oligomerization domain-containing protein 1 (Homo sapiens) (UniProt Q9Y239); experiment: Agonist activity at human NOD1 expressed in HEK-Blue cells assessed as induction of NF-kB transcriptional activity at 20 uM after 18 hrs by SEAP reporter gene assay; assay type: cell-based
T1 sequence (whole entry): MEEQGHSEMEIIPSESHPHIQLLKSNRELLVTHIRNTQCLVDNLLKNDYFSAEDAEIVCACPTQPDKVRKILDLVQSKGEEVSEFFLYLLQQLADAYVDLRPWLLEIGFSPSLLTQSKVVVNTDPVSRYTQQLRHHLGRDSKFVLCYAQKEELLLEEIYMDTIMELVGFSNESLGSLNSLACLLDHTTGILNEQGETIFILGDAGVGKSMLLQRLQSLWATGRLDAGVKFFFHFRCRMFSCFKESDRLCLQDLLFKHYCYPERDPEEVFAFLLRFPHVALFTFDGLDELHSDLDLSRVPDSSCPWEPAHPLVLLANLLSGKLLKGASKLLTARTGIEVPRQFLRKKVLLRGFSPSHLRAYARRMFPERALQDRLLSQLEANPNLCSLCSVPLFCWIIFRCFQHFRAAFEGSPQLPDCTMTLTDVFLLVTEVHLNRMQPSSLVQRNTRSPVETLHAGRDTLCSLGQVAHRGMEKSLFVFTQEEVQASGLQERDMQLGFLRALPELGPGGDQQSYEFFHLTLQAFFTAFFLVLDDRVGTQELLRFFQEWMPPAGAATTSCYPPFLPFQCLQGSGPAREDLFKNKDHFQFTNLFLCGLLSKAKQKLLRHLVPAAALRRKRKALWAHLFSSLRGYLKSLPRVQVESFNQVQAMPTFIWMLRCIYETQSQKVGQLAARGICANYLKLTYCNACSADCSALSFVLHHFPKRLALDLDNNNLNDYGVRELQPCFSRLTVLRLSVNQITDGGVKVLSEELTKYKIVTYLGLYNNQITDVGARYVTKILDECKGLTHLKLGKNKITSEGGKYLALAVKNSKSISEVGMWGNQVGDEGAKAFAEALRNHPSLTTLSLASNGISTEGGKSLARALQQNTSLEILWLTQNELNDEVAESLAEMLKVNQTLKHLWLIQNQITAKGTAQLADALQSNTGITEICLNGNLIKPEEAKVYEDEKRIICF

[4] = Stability in HEK293 cells at 2 uM up to 18 hrs by LC-MS analysis; assay type: ADME, cell-based; conditions: human, hek293, 18 h
[5] = Drug uptake in HEK293 cells cytosol at 2 uM after 18 hrs by LC-MS analysis; assay type: ADME, cell-based; conditions: human
[6] = Drug level in HEK293 cells cytosol at 2 uM after 18 hrs by LC-MS analysis; assay type: ADME, cell-based; conditions: human
[7] = tested on: PBMC; experiment: Immunostimulatory activity in human PBMC assessed as increase in TNF-alpha release at 2 uM after 18 hrs by flow cytometry; assay type: functional, cell-based
[8] = tested on: PBMC; experiment: Immunostimulatory activity in human PBMC assessed as increase in IL-6 release at 2 uM after 18 hrs by flow cytometry; assay type: functional, cell-based
[9] = tested on: PBMC; experiment: Immunostimulatory activity in human PBMC assessed as increase in IL-10 release at 2 uM after 18 hrs by flow cytometry; assay type: functional, cell-based
[10] = tested on: PBMC; experiment: Immunostimulatory activity in human PBMC assessed as increase in IL-10 release at 2 uM after 18 hrs in presence of LPS by flow cytometry relative to control; assay type: functional
[11] = tested on: PBMC; experiment: Immunostimulatory activity in human PBMC assessed as increase in TNF-alpha release at 2 uM after 18 hrs in presence of LPS by flow cytometry relative to control; assay type: functional
[12] = tested on: PBMC; experiment: Immunostimulatory activity in human PBMC assessed as increase in IL-6 release at 2 uM after 18 hrs in presence of LPS by flow cytometry relative to control; assay type: functional
[13] = tested on: PBMC; experiment: Immunostimulatory activity in human PBMC assessed as increase in IL-2 release at 2 uM after 18 hrs in presence of LPS by flow cytometry; assay type: functional, cell-based
[14] = tested on: PBMC; experiment: Immunostimulatory activity in human PBMC assessed as increase in IL-4 release at 2 uM after 18 hrs in presence of LPS by flow cytometry; assay type: functional, cell-based
[15] = tested on: PBMC; experiment: Immunostimulatory activity in human PBMC assessed as increase in IL-17A release at 2 uM after 18 hrs in presence of LPS by flow cytometry; assay type: functional, cell-based
[16] = tested on: PBMC; experiment: Immunostimulatory activity in human PBMC assessed as increase in IFNgamma release at 2 uM after 18 hrs in presence of LPS by flow cytometry; assay type: functional, cell-based
[17] = Pyrogenic activity in Atlantic horseshoe crab blood limulus amebocyte lysate by bacterial endotoxin test; assay type: ADME; conditions: limulus polyphemus
[18] = tested on: Mus musculus; experiment: Immunoadjuvant activity in ovalbumin-induced NIH/OlaHsd mouse model of adjuvancy assessed as induction of ovalbumin-specific humoral immune response by measuring increase in anti-OVA IgG level in serum at 200 ug, sc using liposome encapsulated compound measured on day 7 post second booster by ELISA; assay type: functional, organism-based

Q: For `CCOC(=O)CC[C@@H](NC(=O)[C@@H](NC(=O)CNC(=O)/C=C/c1ccc(O)c(OC)c1)C(C)C)C(=O)OCC`, which Retention_time [1] is on record?
A: 3.53 min

Q: And the viability at 18 h, 20 µM [2]?
A: > 80%

Q: What about the Activity [3] of the same molecule?
A: inactive

Q: And the Stability [4]?
A: Stable

Q: What about the Drug uptake [5] of the same molecule?
A: 40%

Q: And the Drug uptake [6]?
A: 0.13 µM

Q: What about the Activity [7] of the same molecule?
A: Active

Q: And the Activity [8]?
A: Active

Q: And the Activity [9]?
A: Active

Q: And the “fold change (FC)” value [10]?
A: 5

Q: And the “fold change (FC)” value [11]?
A: 3

Q: And the “fold change (FC)” value [12]?
A: 4

Q: What about the Activity [13] of the same molecule?
A: Active

Q: And the Activity [14]?
A: Active

Q: And the Activity [15]?
A: Active

Q: And the Activity [16]?
A: Active

Q: What about the Activity [17] of the same molecule?
A: Non-Toxic

Q: What about the Activity [18] of the same molecule?
A: Active
